For 86 compounds, IC50 results are on record in PubChem BioAssay AID504322 (Emory University Molecular Libraries Screening Center, 2011).

pIC50: −log10 of the molar value. Activity calls are given as the source filed them. The rule behind the calls is not given here.

For this assay, the system named is CHOP reporter cell assay, percent of control. Put plainly: CHOP reporter inhibitor potency, dose response, cell-based (AID 504322).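 Note: CHO cells carrying a CHOP reporter stimulated with tunicamycin to induce ER stress; potency is for inhibition of the stress-induced reporter signal.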
With `COc1ccc(N=CC2=C(O)c3ccccc3C2=O)c(OC)c1`, the IC50 is 6.53 µM (inactive).

For the compound `O=C(O)CSCC(=O)Nc1ccc(C2CCCCC2)cc1`, the pIC50 is 6.27.

On to `CC(C)(C)C(=O)NC(=S)NNC(=O)C(c1ccccc1)c1ccccc1`, for which the IC50 was 9.04 µM (inactive).

`Cc1cccc(N=Nc2c(N)n[nH]c2-c2ccc(Cl)cc2)c1`: the IC50 was 9.41 µM (inactive).

With `O=C(Nc1cccc(F)c1)N(Cc1ccc(Cl)cc1)CC(O)C(F)(F)F` (stereo unspecified), the pIC50 was 5.45.

For `O=C1c2ccc3c4c(ccc(c24)C(=O)N1c1cccc(O)c1)C(=O)N(c1cccc(O)c1)C3=O`, the IC50 is 9.81 µM (inactive).

As to `Cc1ccccc1Oc1cc(-n2ncc(Cl)c(Cl)c2=O)ncn1`, the pIC50 is 5.68.

On to `COc1cccc(-c2nnc(NC(=O)c3ccc(S(=O)(=O)N(CC(C)C)CC(C)C)cc3)o2)c1`, for which the pIC50 was 5.38.

As to `CCCOc1ccccc1C1CC(=O)NC(C)=C1C(=O)OCC(C)C` (stereo unspecified), the IC50 was 5.14 µM (inactive).

On to `Cc1ccc(/C=N/NC(=O)CCCOc2ccc(Cl)cc2Cl)cc1`, for which the IC50 is 7.92 µM (inactive).

For the compound `Nc1ccc2oc(-c3cc(Br)ccc3Cl)nc2c1`, the pIC50 is 6.15.

As to `COCCCn1c(N)c(C(=O)NCCC(C)C)c2nc3ccccc3nc21`, the IC50 was 9.46 µM (inactive).

For the compound `COc1ccc(CCN2C(=O)c3[nH]nc(-c4ccccc4O)c3C2c2cccc(Cl)c2)cc1` (stereo unspecified), the IC50 was > 10 µM (inactive).

As to `Cc1cc(C)c2c(c1)/C(=N/NS(=O)(=O)c1ccc(Br)cc1)CCC2`, the IC50 was 9.49 µM (inactive).

Take `Cc1ccc(N=C2SC(C(=O)Nc3ccc(OC(F)(F)F)cc3)C(N)=C2C(=O)Nc2c(C)cc(C)cc2C)cc1` (stereo unspecified): the IC50 was > 10 µM (inactive).

Take `Cc1nn(Cc2c(Cl)cccc2Cl)c(C)c1NC(=O)c1cn(-c2ccccc2)nc1-c1ccccc1`: the pIC50 is 5.32.

In the case of `CCCCCCn1c(=O)c(C(=O)Nc2cnccn2)c(O)c2ccccc21`, the pIC50 was 5.58.

`Fc1cccc(-c2nnn3c2nc(Cl)c2ccccc23)c1`: the IC50 is 7.37 µM (inactive).

Regarding `O=C(CCCOc1ccc(Cl)cc1Cl)N/N=C\C1CCCCC1`, the IC50 is 5.03 µM (inactive).

Turning to `CCC(C)Sc1nc2c(c(=O)[nH]c(=O)n2C)n1Cc1ccc(Cl)cc1` (stereo unspecified), the IC50 was > 10 µM (inactive).

On to `CCN1C=CC(=C2C(=O)c3ccccc3C2=O)C=C1`, for which the IC50 was 1.11 µM (inactive).

With `COc1cc(OC)cc(-c2nc3ccccc3c(=O)n2OC(=O)c2ccc(Br)cc2)c1`, the IC50 is > 10 µM (inactive).

As for `COc1ccc(Cn2c(SCc3ccccc3C)nc3cc(OC)c(OC)cc3c2=N)cc1`, the IC50 is 8.86 µM (inactive).

Take `CCOC(=O)c1cc(-c2cccs2)nc2c1c(C)nn2-c1ccccn1`: the IC50 was 9.14 µM (inactive).

Regarding `Cn1cnc([N+](=O)[O-])c1S(=O)(=O)c1cccc(Cl)c1`, the IC50 was 8.11 µM (inactive).

Take `CCSc1nc(-c2ccccc2)nc(C(Cl)Cl)n1`: the IC50 is 6.32 µM (inactive).

Turning to `O=C(CCl)N(Cc1cccc([N+](=O)[O-])c1)c1cccc(Cl)c1`, the IC50 is 9.39 µM (inactive).

Consider `CCOc1cc(/C=C\[N+](=O)[O-])ccc1OCC(=O)Nc1ccccc1C`, for which the IC50 is 4.96 µM (inactive).

On to `COc1ccc(/C=C2\SC(=S)N(CCCC(=O)Nc3ccc(O)cc3)C2=O)cc1`, for which the pIC50 is over 6.80.

For `CCN1/C(=C/C=C/C=C/c2sc3ccccc3[n+]2CC)Sc2ccccc21`, the IC50 was 0.87 µM (inactive).

For `Nc1nc(-c2ccccc2)c(N=Nc2ccccc2Cl)s1`, the IC50 was 8.65 µM (inactive).

Consider `CC(C)=NOc1cc(NC(=O)CCl)cc([N+](=O)[O-])c1`, for which the IC50 is 9.61 µM (inactive).

Take `COc1ccccc1-c1cc(C(F)(F)F)nc(S(=O)(=O)CCCC(=O)Nc2cccnc2Cl)n1`: the IC50 was > 10 µM (inactive).

For the compound `FC(F)(F)c1cccc(CN2CCC(c3cc(-c4cccs4)n[nH]3)CC2)c1`, the IC50 is 9.4 µM (inactive).

Take `Cc1ccc(NP(=O)(Oc2ccccc2F)Oc2ccccc2F)cc1`: the IC50 was 5.26 µM (inactive).

For the compound `Cc1cc(/C=c2/sc3nc4ccccc4n3c2=O)c(C)n1-c1ccccn1`, the pIC50 is over 6.80.

`O=C(OCn1ncc(Br)c(Br)c1=O)c1ccccc1Cl`: the pIC50 is 5.55.

With `CC(C)(C)OC(=O)NCCc1nnc(S(=O)(=O)Cc2ccc(Cl)cc2Cl)o1`, the IC50 was > 10 µM (inactive).

As for `CCCCc1c(C)nn(-c2nnc3c4ccccc4n(CC)c3n2)c1C`, the IC50 is 9.73 µM (inactive).

For the compound `CCCCCCn1c(SCCC)nc2c1c(=O)[nH]c(=O)n2C`, the pIC50 is 5.27.

`O=C1NC[C@@H](Cc2cccc3ccccc23)N(CCc2cc(C(F)(F)F)cc(C(F)(F)F)c2)C1=O`: the IC50 was 9.02 µM (inactive).

`CCCCn1c(=O)[nH]c(=O)c2c1nc(-c1ccc(OCCC)c(OCC)c1)n2C`: the IC50 was > 10 µM (inactive).

Turning to `Cc1nc(COC(=O)c2cc(O)c3ccccc3c2O)cs1`, the IC50 is > 10 µM (inactive).

As for `CCc1ccc2c(c1)C(c1ccc([N+](=O)[O-])cc1)=NNC(c1ccc(C)cc1)=N2`, the IC50 was > 10 µM (inactive).

Consider `NC(=O)c1ccc(C(F)(F)F)n(Cc2c(Cl)cccc2Cl)c1=O`, for which the IC50 was 9.4 µM (inactive).

As to `Nc1ccc2c(c1)C(=O)C(=O)c1ccccc1-2`, the IC50 was 5.08 µM (inactive).

Take `C=CCSc1nc2ccccc2n1C(=O)/C=C/c1cc(OC)c(OC)c(OC)c1`: the pIC50 is 5.38.

Consider `C=CCOC(=O)C1=C(C)NC(SCC(=O)Nc2nccs2)=C(C#N)C1c1ccc(Cl)cc1` (stereo unspecified), for which the IC50 was 9.67 µM (inactive).

Consider `C[C@H](NC(=O)c1[nH]cnc1C(=O)Nc1ccc(CNC(=O)OC(C)(C)C)cc1)C(=O)OC(C)(C)C`, for which the IC50 was > 10 µM (inactive).

Turning to `Cc1ccc(NC(=O)c2cc3ccccc3oc2=O)cc1S(=O)(=O)N(C)C`, the pIC50 was over 6.80.

With `O=C(Nc1ccc(-c2nc3ccccc3s2)cc1)C1=COCCO1`, the IC50 is 7.48 µM (inactive).

`O=C(Cc1ccccc1)NC(=S)Nc1cccc(C(F)(F)F)c1`: the IC50 is 3.61 µM (inactive).

For `OC(c1cccc(OCc2ccccc2)c1)c1nnc(-c2ccccc2)o1` (stereo unspecified), the IC50 is > 10 µM (inactive).

On to `COCCn1c(=NC(=O)/C=C/c2cccs2)sc2cc(NC(C)=O)ccc21`, for which the IC50 is > 10 µM (inactive).

Turning to `COc1ccccc1C(=O)NC(=Nc1nc2ccccc2o1)NC(=O)c1ccccc1OC`, the IC50 is 9.43 µM (inactive).

As for `CCNC(=O)c1c(NC(=O)c2cc(-c3cc(C)ccc3O)n[nH]2)sc2c1CCCC2`, the IC50 was 9.58 µM (inactive).

Turning to `CCOC(=O)Cc1csc(NC(=O)NC2(C(F)(F)F)Oc3cc(Cl)c(Cl)cc3O2)n1`, the pIC50 is 5.39.

On to `C=C(C)COc1ccc(-c2n[nH]c(C)c2-c2ccccc2OC)c(O)c1`, for which the IC50 was > 10 µM (inactive).

As for `COC(=O)c1c(NC(=O)Nc2ccc(Cl)cc2)sc(C)c1C`, the IC50 is 9.33 µM (inactive).

In the case of `O=c1c(Br)c(Br)cnn1-c1ccccc1`, the IC50 is 4.97 µM (inactive).

Consider `CCOC(=O)c1c(C(C)(C)C)oc2ccc(O)cc12`, for which the IC50 is 9.38 µM (inactive).

Turning to `O=C(Nc1ccc([N+](=O)[O-])cc1)Nc1nc(-c2ccc(Cl)s2)cs1`, the pIC50 is 5.64.

As to `CCOc1cc(/C=N\NC(=O)Cc2ccccc2)ccc1OCC(=O)Nc1ccc(C)c(C)c1`, the IC50 is 6.38 µM (inactive).

On to `CC(C)Cn1c2c(c(=O)[nH]c1=O)C(C(F)(F)F)(C(F)(F)F)N=C(CCC1CCCCC1)N2`, for which the pIC50 is 5.63.

On to `C/C=C(\C)C(=O)OC1C(C)=C2C(C1OC(=O)CCCCC)C(C)(OC(C)=O)CC(OC(=O)CCC)C1(O)C2OC(=O)C1(C)O` (stereo unspecified), for which the pIC50 is over 6.80.

For the compound `Cc1ccc(N2C(=O)NC(=O)/C(=C\C=C\c3ccco3)C2=O)cc1`, the IC50 is 9.55 µM (inactive).

Consider `Cn1c(=O)[nH]c(=O)c2[nH]c(N(Cc3ccccc3)Cc3ccccc3)nc21`, for which the IC50 was 6.18 µM (inactive).

Regarding `Cn1c(=O)c([N+](=O)[O-])c(Cl)c2ccccc21`, the pIC50 was 5.48.

With `CS(=O)(=O)c1ccc(S(=O)CC(=O)OCc2ccccc2)c([N+](=O)[O-])c1` (stereo unspecified), the IC50 was > 10 µM (inactive).

On to `COc1cc2c(cc1OC)C(c1ccccc1)N(C(=O)CCl)CC2` (stereo unspecified), for which the IC50 is 9.53 µM (inactive).

In the case of `Cc1ccc(NC(=O)CCl)cc1S(=O)(=O)N1CCCCCC1`, the IC50 is > 10 µM (inactive).

Turning to `Cc1cccc(C(=O)c2cnc3ccccc3c2-c2ccccc2)c1`, the IC50 was > 10 µM (inactive).

`CC(C)C[C@H](NC(=O)OC(C)(C)C)C(=O)N/N=C/C1=Cc2ccccc2OC1C` (stereo partly specified): the pIC50 was 5.64.

As to `CC(C)(C)C(=O)c1no[n+]([O-])c1/C(=N/O)C(C)(C)C`, the IC50 was 7.23 µM (inactive).

For the compound `Cc1ccc2nc(Nc3ccc4[nH]c(=O)[nH]c4c3)c(-n3nc(C)cc3C)nc2c1`, the pIC50 is 5.19.

On to `O=C(CCl)N(c1ccc(Cl)cc1)c1c[nH]c2ccccc12`, for which the IC50 is 9.58 µM (inactive).

For `Cc1ccc(-n2c(=O)[nH]c3c(C(N)=O)nc(-c4ccc(C)o4)nc32)cc1`, the IC50 is > 10 µM (inactive).

Turning to `O=C(Nc1ccc(Oc2ccccc2)cc1)C1CCN(c2c3c(nc4ncnn24)CCC3)CC1`, the IC50 is > 10 µM (inactive).

Consider `O=C(NC(c1ccccc1)c1cc(Cl)c2cccnc2c1O)c1cccnc1` (stereo unspecified), for which the pIC50 was 5.47.

As to `CCN(CCO)c1ncnc2c1sc1nc(CC(C)C)c3c(c12)CC(C)(C)OC3`, the IC50 is 9.11 µM (inactive).

With `O=C(CCl)Nc1cc(-c2ccccc2)nn1-c1ccccc1`, the IC50 is 9.78 µM (inactive).

With `Cc1ccc2c(c1)c1c(n2CC(O)Cn2c(C)nc3ccccc32)CCCC1` (stereo unspecified), the IC50 was 6.68 µM (inactive).

As for `C=CCOC(=O)C1=C(C)NC(C)=C(C(=O)OCC=C)C1/C=C/c1ccccc1`, the IC50 was 5.02 µM (inactive).

In the case of `Cc1cccc(NC(=S)NC(NC(=O)OCc2ccccc2)C(Cl)(Cl)Cl)c1` (stereo unspecified), the IC50 is 9.44 µM (inactive).

Consider `Cc1nn(Cc2c(Cl)cccc2Cl)c(C)c1NC(=O)c1cc(C(C)C)on1`, for which the IC50 was > 10 µM (inactive).

With `CCCOC(=O)c1ccc(Oc2cn[nH]c2-c2ccc(OCC)cc2O)cc1`, the IC50 was 9.56 µM (inactive).

What is called IC50 is the midpoint of a concentration-inhibition curve. A word on the pIC50: it is the IC50 on a negative log10 scale, so that one unit is a factor of ten.
